Laboratory results from US20240116985A1, “STAPLED PEPTIDES AND METHODS THEREOF” (priority 2020, published 2024).

Biological target: T1, full-length beta-Catenin (Uniprot ID P35222) (Homo sapiens, UniProt P35222)
T1 construct: 10 nM full-length beta-Catenin (Uniprot ID P35222)
T1 sequence (P35222 1-781): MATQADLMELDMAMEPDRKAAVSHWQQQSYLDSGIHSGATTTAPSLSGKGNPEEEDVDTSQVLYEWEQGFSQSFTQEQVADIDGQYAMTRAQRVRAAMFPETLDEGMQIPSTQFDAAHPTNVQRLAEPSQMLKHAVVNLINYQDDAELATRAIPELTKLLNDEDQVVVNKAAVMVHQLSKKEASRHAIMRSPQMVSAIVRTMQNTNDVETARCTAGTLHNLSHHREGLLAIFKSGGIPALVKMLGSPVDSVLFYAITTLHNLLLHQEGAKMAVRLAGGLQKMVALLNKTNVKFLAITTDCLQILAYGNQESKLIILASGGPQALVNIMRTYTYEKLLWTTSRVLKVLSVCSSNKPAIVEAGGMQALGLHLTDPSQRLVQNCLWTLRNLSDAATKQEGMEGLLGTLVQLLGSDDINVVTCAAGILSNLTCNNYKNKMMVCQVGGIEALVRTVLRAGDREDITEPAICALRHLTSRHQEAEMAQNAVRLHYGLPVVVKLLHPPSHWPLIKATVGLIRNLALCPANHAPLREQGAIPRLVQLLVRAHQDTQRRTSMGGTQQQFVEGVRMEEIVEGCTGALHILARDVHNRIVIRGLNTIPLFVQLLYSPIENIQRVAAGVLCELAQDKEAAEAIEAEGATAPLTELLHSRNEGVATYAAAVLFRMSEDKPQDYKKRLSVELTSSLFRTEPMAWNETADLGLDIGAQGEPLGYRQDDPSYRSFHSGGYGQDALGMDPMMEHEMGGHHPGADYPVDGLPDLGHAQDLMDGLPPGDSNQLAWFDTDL
Assay: Fluorescence polarization IC50 (beta-catenin / 5FAM-TCF4 10-53 competition)
Type: binding
Conditions: fluorescence polarization; read-out: beta-Catenin FP IC50

Row | SMILES | IC50 [nM]
1 | CC(=O)N1CCC[C@]12CC=CCCCC1(CCCC=CCCCOC(=O)N3CC[C@@](C(=O)N[C@@H](Cc4ccsc4)C(=O)N[C@@H](Cc4csc5ccccc45)C(=O)N[C@@H](CCC(N)=O)C(N)=O)(C3)NC(=O)[C@H](Cc3c[nH]c4ccccc34)NC(=O)[C@H](Cc3ccccc3)NC(=O)[C@H](C)NC(=O)[C@H](C)NC(=O)[C@H]([C@@H](C)O)NC(=O)[C@H](CC(N)=O)NC1=O)NC(=O)[C@H](CC(C)(C)C)NC(=O)[C@H](CC(=O)O)NC2=O (stereo partly drawn) [I-1741, Ac-PL3-Asp-Npg-B5-Asn-Thr-Ala-Ala-Phe-Trp-PyrS2-3Thi-BztA-Gln-NH2] | 4390
2 | CC(=O)N1CCC[C@]12CC=CCCCC1(CCCC=CCCCOC(=O)N3CC[C@@](C(=O)N[C@@H](Cc4ccsc4)C(=O)N[C@@H](Cc4csc5ccccc45)C(=O)N[C@@H](Cc4c[nH]cn4)C(N)=O)(C3)NC(=O)[C@H](CC(N)=O)NC(=O)[C@H](Cc3ccccc3)NC(=O)[C@H](C)NC(=O)[C@H](C)NC(=O)[C@H]([C@@H](C)O)NC(=O)[C@H](CC(N)=O)NC1=O)NC(=O)[C@H](CC(C)(C)C)NC(=O)[C@H](CC(=O)O)NC2=O (stereo partly drawn) [I-2140, Ac-PL3-Asp-Npg-B5-Asn-Thr-Ala-Ala-Phe-Asn-PyrS2-3Thi-BztA-His-NH2] | 233
3 | CC(=O)N1CCC[C@]12CC=CCCCC1(CCCC=CCCCOC(=O)N3CC[C@@](C(=O)N[C@@H](Cc4ccsc4)C(=O)N[C@@H](Cc4csc5ccccc45)C(=O)N[C@H](C(N)=O)C(C)C)(C3)NC(=O)[C@H](CC(C)C)NC(=O)[C@H](Cc3ccccc3)NC(=O)[C@H](C)NC(=O)[C@H](C)NC(=O)[C@H](CN(CC(=O)O)CC(F)(F)F)NC(=O)[C@H](CC(=O)O)NC1=O)NC(=O)[C@H](CC(C)(C)C)NC(=O)[C@H](CC(=O)O)NC2=O (stereo partly drawn) [I-1752, Ac-PL3-Asp-Npg-B5-Asp-TfeGA-Ala-Ala-Phe-Leu-PyrS2-3Thi-BztA-Val-NH2] | 87
4 | CC(=O)N1CCC[C@H]1C(=O)N[C@@H](CC(=O)O)C(=O)N[C@@H](CC(C)(C)C)C(=O)N[C@]1(C)CCCCCCCCOC(=O)N2CC[C@@](C(=O)N[C@@H](Cc3ccsc3)C(=O)N[C@@H](Cc3csc4ccccc34)C(=O)N[C@@H](CCC(N)=O)C(N)=O)(C2)NC(=O)[C@H](CC(C)C)NC(=O)[C@H](Cc2ccccc2)NC(=O)[C@H](C)NC(=O)[C@H](C)NC(=O)[C@H](CC(=O)O)NC(=O)[C@H](CC(=O)O)NC1=O [I-1810, Ac-Pro-Asp-Npg-R5-Asp-Asp-Ala-Ala-Phe-Leu-PyrS2-3Thi-BztA-Gln-NH2] | 416
5 | CC(=O)N1CCC[C@]12CC=CCCCC1(CCCC=CCOC(=O)N(C)CC[C@@](C)(C(=O)N[C@@H](Cc3ccsc3)C(=O)N[C@@H](Cc3csc4ccccc34)C(=O)N[C@@H](CCC(N)=O)C(N)=O)NC(=O)[C@H](CC(C)C)NC(=O)[C@H](Cc3ccccc3)NC(=O)[C@H](C)NC(=O)[C@H](C)NC(=O)[C@H](CC(=O)O)NC(=O)[C@H](CC(=O)O)NC1=O)NC(=O)[C@H](CC(C)(C)C)NC(=O)[C@H](CC(=O)O)NC2=O (stereo partly drawn) [I-1830, Ac-PL3-Asp-Npg-B5-Asp-Asp-Ala-Ala-Phe-Leu-SdN-3Thi-BztA-Gln-NH2] | 313
6 | CC(=O)N1CCC[C@]12CC=CCCCC1(CCCC=CCCCCOC(=O)N3CCC(C(=O)N[C@@H](Cc4ccccc4C(F)(F)F)C(=O)N[C@@H](Cc4csc5ccccc45)C(=O)N[C@@H](C)C(N)=O)(CC3)NC(=O)[C@H](CC(C)C)NC(=O)[C@H](Cc3ccccc3)NC(=O)[C@H](C)NC(=O)[C@H](CCC(N)=O)NC(=O)[C@H](Cc3cccc(C(=O)O)c3)NC(=O)[C@H](CC(=O)O)NC1=O)NC(=O)[C@H](CC(C)(C)C)NC(=O)[C@H](CC(=O)O)NC2=O (stereo partly drawn) [I-2587, Ac-PL3-Asp-Npg-B5-Asp-3COOHF-Gln-Ala-Phe-Leu-SPip3-2F3MeF-BztA-Ala-NH2] | 273
